In test [1] the target is T1, Caspase-3 (Homo sapiens, UniProt P42574).
T1 sequence (P42574 whole entry): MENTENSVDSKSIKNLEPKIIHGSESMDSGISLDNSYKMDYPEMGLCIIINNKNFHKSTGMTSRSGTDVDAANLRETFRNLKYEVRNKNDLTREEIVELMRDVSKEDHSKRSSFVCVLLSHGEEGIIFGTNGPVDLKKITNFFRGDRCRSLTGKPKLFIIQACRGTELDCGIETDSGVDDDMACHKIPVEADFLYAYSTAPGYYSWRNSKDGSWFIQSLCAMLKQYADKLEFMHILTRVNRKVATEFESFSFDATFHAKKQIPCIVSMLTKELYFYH
Nature of the test: inhibition of recombinant caspase-3 activity – biochemical, luminescence, set 2, selectivity assay for SENP protease inhibitor project, SAR follow-up (AID 588599). Format: functional.

In test [2] the target is T2, Sentrin-specific protease 8 (Homo sapiens, UniProt Q96LD8).
T2 sequence (Q96LD8 whole entry): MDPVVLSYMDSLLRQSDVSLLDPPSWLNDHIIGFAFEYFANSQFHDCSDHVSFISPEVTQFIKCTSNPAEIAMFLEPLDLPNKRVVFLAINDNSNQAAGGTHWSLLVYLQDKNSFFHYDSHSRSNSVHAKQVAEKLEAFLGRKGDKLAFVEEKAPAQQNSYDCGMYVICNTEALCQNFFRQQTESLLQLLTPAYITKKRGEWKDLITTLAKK
Nature of the test: inhibition of sentrin protease 8 – biochemical, luminescence, set 2, SAR follow-up (AID 588601). Format: functional.

Test [3] has as its target T3, Sentrin-specific protease 7 (Homo sapiens, UniProt Q9BQF6).
T3 sequence (Q9BQF6 whole entry): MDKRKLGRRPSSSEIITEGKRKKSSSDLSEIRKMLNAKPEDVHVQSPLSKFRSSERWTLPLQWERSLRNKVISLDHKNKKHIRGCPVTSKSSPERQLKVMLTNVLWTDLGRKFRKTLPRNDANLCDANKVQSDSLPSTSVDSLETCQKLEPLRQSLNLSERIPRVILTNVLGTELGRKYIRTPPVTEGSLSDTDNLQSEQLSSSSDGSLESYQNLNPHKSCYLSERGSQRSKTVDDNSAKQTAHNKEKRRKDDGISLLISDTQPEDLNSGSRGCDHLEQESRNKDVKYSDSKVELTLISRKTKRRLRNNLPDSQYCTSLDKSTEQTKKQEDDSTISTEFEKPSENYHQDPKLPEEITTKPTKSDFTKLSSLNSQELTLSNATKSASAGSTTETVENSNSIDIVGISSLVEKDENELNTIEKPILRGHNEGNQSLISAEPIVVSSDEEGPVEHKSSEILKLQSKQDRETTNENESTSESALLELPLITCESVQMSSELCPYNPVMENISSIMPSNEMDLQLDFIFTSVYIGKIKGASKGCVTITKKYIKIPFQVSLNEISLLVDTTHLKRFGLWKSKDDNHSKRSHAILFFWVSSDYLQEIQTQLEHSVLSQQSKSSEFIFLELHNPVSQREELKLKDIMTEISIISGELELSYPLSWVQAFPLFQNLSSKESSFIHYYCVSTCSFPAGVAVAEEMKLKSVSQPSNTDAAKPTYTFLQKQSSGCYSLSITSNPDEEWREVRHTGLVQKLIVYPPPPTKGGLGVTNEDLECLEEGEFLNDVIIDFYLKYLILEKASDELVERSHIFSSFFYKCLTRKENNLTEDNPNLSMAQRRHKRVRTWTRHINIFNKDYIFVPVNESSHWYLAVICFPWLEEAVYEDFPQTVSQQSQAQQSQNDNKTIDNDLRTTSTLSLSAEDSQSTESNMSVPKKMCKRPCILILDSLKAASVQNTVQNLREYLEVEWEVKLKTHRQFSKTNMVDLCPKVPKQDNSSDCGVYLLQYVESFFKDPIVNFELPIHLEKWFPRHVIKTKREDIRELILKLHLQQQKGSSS
Nature of the test: inhibition of human SENP7 cleavage activity – biochemical, luminescence, SAR follow-up (AID 504497). The class given is functional.

Test [4] addresses T4, Sentrin-specific protease 6 (Homo sapiens, UniProt Q9GZR1).
T4 sequence (Q9GZR1 whole entry): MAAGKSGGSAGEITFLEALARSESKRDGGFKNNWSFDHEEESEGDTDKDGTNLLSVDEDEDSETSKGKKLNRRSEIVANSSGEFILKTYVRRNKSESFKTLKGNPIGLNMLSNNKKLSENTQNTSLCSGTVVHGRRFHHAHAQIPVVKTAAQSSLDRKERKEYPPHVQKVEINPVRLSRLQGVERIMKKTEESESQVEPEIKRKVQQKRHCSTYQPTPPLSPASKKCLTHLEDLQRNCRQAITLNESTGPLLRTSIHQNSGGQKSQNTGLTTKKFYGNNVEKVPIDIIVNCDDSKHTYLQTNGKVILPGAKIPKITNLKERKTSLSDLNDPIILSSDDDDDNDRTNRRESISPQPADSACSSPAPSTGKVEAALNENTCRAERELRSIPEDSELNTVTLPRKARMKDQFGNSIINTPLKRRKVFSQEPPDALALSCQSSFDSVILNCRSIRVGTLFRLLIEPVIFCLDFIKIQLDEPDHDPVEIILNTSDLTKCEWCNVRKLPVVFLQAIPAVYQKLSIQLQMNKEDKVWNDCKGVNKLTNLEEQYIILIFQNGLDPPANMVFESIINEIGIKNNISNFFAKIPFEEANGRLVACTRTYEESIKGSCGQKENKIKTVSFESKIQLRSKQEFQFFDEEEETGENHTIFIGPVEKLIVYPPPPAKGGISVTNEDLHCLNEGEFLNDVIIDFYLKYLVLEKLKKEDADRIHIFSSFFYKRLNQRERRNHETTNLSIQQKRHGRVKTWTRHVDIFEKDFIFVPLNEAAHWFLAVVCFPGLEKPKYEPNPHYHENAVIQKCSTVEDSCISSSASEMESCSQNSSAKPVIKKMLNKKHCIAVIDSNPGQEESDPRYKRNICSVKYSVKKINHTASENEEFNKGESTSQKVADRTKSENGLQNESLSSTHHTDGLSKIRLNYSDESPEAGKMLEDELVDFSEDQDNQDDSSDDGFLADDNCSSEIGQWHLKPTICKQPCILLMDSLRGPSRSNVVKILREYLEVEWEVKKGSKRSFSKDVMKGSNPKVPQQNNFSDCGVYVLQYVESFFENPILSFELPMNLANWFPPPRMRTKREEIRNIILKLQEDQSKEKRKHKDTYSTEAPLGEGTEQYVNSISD
Nature of the test: inhibition of human SENP6 catalytic domain – biochemical, luminescence, set 2, SAR follow-up (AID 588598). The class given is functional.

Test [5] deals with T4, Sentrin-specific protease 6. Nature of the test: SAR Analysis of small molecule inhibitors of Sentrin-specific protease 6 (SENP6) using a Luminescent assay. [Related pubchem assays (depositor defined):AID2582, AID2599]. The class given is functional.
The target of test [6] is T3, Sentrin-specific protease 7. Nature of the test: inhibition of human SENP7 cleavage activity – biochemical, luminescence, set 2, SAR follow-up (AID 588600). The class given is functional.
In test [7] the target is T2, Sentrin-specific protease 8. Nature of the test: inhibition of human SENP8 cleavage activity – biochemical, luminescence, SAR follow-up (AID 504501). The class given is functional.
Test [8] deals with T1, Caspase-3. Nature of the test: SAR Analysis of small molecule inhibitors of Sentrin-specific proteases (SENPs) using a Caspase-3 Selectivity assay. [Related pubchem assays (depositor defined):AID2540, AID2599, AID434973, AID489001]. Format: functional.
The target in test [9] is T5, Endoribonuclease toxin MazF (Escherichia coli K-12, UniProt P0AE70).
T5 sequence (P0AE70 whole entry): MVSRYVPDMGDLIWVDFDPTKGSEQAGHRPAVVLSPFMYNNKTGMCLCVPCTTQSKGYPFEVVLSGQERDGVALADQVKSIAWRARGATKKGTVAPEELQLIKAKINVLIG
Nature of the test: activation of MazEF endoribonuclease cleavage – biochemical, fluorescence, single-stranded RNA substrate, uHTS hits, dose response (AID 588481). The class given is functional.

In test [10] the target is T5, Endoribonuclease toxin MazF. Nature of the test: MazEF toxin-antitoxin RNase activation – biochemical, fluorescence, single-stranded RNA substrate, SAR follow-up (AID 588603). The class given is functional.
The test system of the next test is MEF. Nature of the test: SAR analysis of small molecule cytotoxicity of MazEF TA System activators in embryonic fibroblast (MEF) cells. [Related pubchem assays (depositor defined):AID504720, AID504743]. The class given is functional. To be noted: Mus musculus.
For test [11], the target named is T5, Endoribonuclease toxin MazF. Nature of the test: SAR analysis of small molecule activators of the MazEF TA System via a fluorescence-based single-stranded RNase assay counterscreen. [Related pubchem assays (depositor defined):AID504720, AID504743]. The class given is functional.
Test [12] shares this target. Nature of the test: substrate-only fluorescence increase artefacts – biochemical, single-stranded RNase substrate, counter-screen for MazEF activator project, dose response (AID 588502). The class given is functional.
In a further test the target is Phospholipase D1 (Homo sapiens, UniProt Q13393). Nature of the test: cellular phospholipase D1 inhibition IC50 – cell-based, dose response (AID 602151).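 Also: cellular PLD1 assay in Calu-1 cells stimulated with PMA.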 The class given is functional.
Sequence of Phospholipase D1 (Q13393 whole entry): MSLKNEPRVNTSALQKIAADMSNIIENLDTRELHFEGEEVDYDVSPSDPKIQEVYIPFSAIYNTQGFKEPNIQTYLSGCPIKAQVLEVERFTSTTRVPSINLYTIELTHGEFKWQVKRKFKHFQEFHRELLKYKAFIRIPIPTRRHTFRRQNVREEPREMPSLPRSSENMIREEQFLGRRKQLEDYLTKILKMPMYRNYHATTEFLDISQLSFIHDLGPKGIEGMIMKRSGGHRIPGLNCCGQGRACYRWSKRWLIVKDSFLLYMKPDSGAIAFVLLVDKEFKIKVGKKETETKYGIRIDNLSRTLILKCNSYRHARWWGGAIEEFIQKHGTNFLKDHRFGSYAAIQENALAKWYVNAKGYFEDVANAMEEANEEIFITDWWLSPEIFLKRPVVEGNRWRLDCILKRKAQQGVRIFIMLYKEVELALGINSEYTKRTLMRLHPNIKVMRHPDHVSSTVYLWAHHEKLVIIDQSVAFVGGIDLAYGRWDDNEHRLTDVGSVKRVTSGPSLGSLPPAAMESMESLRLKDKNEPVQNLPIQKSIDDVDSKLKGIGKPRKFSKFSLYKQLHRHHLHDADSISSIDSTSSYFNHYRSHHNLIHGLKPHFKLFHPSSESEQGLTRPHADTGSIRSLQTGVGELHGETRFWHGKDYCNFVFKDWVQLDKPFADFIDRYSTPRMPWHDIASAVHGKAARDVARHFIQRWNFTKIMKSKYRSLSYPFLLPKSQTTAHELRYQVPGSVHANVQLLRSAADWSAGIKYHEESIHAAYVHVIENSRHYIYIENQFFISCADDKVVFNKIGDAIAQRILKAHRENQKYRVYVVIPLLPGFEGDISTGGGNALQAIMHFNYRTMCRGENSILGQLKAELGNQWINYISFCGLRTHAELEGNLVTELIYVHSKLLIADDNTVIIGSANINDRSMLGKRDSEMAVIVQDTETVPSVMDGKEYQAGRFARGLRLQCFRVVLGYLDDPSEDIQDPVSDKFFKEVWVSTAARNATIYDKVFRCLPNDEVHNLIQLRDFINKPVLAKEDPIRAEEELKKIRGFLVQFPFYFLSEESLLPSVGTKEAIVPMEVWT
A further test concerns the target Phospholipase D2 (Homo sapiens, UniProt O14939). Nature of the test: cellular phospholipase D2 inhibition IC50 – cell-based, dose response (AID 602147).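 Also: cellular assay in HEK293 cells overexpressing GFP-tagged PLD2.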 Format: functional.
The test system of a further test is P388. Nature of the test: cells. Format: functional. To be noted: Mus musculus, P388.
The next test deals with P388/ADR. Nature of the test: cells. The class given is functional. To be noted: Mus musculus, P388/ADR.
Test [13] has as its target FAD-linked sulfhydryl oxidase ALR (Homo sapiens, UniProt P55789). Nature of the test: ALR-catalysed DTT oxidation blockers – biochemical, H2O2 detection, luminescence, cherry-pick, dose response (AID 493248).
Test [14] can be described thus: luciferase inhibitors in kinase-free ADP detection – biochemical, luminescence, cherry-pick, set 02, artefact control for Dyrk1A inhibitor project, dose response (AID 588348).
In test [15] the target is Dual specificity tyrosine-phosphorylation-regulated kinase 1A (Rattus norvegicus, UniProt Q63470). The class given is biochemical, Homo sapiens.
A further test addresses Large T antigen (Simian virus 40, UniProt P03070). The class given is functional, Betapolyomavirus macacae.
The next test deals with SN12K1. Nature of the test: cells. The class given is functional. To be noted: Homo sapiens, SN12K1.

The structures appear in SMILES notation. Active and inactive are the calls of the source. Bounds are passed on as bounds.

Sequence of Phospholipase D2 (O14939 whole entry): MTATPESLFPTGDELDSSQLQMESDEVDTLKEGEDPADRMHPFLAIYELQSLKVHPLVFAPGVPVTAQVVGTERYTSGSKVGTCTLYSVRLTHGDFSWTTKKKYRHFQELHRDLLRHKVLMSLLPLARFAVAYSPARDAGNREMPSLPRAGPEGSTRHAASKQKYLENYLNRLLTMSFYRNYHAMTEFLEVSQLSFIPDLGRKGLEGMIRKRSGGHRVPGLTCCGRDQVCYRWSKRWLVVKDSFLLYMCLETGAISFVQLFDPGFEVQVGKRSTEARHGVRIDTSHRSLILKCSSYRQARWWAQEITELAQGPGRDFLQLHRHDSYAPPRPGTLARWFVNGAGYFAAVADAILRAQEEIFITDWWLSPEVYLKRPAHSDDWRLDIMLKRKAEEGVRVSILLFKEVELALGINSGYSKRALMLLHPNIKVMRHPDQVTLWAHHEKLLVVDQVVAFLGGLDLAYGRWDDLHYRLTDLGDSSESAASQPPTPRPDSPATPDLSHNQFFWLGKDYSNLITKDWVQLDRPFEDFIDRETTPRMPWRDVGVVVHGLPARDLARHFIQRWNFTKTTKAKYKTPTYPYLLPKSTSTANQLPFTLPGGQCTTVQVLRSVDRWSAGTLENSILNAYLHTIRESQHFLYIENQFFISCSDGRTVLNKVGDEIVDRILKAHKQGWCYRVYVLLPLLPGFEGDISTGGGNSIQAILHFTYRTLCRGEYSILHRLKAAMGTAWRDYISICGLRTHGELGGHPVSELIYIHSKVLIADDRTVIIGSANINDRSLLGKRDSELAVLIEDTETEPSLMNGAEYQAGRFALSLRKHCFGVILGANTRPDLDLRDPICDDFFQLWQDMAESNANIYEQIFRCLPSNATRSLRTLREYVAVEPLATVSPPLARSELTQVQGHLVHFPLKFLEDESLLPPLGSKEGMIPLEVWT
Sequence of Large T antigen (P03070 whole entry): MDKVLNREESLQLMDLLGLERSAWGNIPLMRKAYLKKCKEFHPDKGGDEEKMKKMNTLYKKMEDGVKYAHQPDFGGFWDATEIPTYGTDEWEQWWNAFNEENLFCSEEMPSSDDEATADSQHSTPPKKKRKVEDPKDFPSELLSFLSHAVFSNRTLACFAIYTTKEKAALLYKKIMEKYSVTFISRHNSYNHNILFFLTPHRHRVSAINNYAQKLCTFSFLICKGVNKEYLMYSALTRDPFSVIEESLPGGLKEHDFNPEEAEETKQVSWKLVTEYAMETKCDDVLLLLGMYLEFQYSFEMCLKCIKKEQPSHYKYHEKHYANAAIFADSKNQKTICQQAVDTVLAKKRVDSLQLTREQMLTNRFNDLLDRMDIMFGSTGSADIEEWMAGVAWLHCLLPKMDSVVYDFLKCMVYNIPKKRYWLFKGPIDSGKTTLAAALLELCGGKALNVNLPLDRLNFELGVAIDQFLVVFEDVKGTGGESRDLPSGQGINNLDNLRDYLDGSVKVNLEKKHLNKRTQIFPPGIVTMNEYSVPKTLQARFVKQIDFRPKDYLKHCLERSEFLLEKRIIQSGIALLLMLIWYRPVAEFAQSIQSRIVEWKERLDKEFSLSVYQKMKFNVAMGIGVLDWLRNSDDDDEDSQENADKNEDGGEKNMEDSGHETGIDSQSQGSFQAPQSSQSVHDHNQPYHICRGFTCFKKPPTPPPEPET
Sequence of FAD-linked sulfhydryl oxidase ALR (P55789 whole entry): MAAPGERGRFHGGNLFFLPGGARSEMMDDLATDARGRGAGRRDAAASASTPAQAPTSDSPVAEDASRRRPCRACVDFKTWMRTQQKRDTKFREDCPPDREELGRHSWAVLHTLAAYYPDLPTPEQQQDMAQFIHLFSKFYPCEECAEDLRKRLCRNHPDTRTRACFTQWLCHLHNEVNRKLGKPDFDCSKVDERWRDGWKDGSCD

On to `O=C(Nc1nc2ccc(Cl)cc2s1)c1ccco1`, for which the IC50 at Caspase-3 [1] is 1.42 µM (active); in test [2] it was 1.08 µM (active); in test [3], 1 µM (active); in [4], 1.16 µM (active); in test [5], 1.4 µM (active); in test [6], 1.23 µM (active). The results for the IC50 (in test [7]; at Caspase-3 [8]) were 1.7 µM (active) and 1.5 µM (active), respectively.

Consider `Cc1ccc(CNC(=O)c2ccc(CNS(=O)(=O)c3ccc4c(c3)C(C)(C)C(=O)N4C)cc2)o1`, for which the half-maximal effective concentration (EC50) in test [9] is 9.43 µM (active); in test [10], 9.72 µM (active); in test [11] it was > 99 µM (inactive); in [12], > 99 µM (inactive). Moreover, in the test with MEF, the CC50 is > 99 µM (inactive).

Take `C[C@@H](CN1CCC(n2c(=O)[nH]c3ccccc32)CC1)NC(=O)c1ccc(C(F)(F)F)cc1`: the figures for the IC50 at Phospholipase D1 and on Phospholipase D2 were 0.121 µM (active) and 20 µM (active), respectively.

Consider `Oc1cc(O)cc(/C=C/c2ccc(O)c(O)c2)c1` [PICEATANNOL], for which the results for the GI50 with P388, with P388/ADR and in the test on SN12K1 were 5.48 µM (inactive), 7.76 µM (inactive) and 3.94 µM (inactive), respectively. In addition, the figures for the AC50 in test [13], in test [14] and in test [15] were 0.689 µM (active), 27.7 µM (active) and 7.53 µM (active), respectively. Besides, the EC50 in test [9] and in test [12] was > 99 µM (inactive) each time. In addition, on Large T antigen, the 50% inhibitory concentration (IC50) was 16.4 µM (active).

Source of the values: ChEMBL document CHEMBL1201862, “PubChem BioAssay data set” (2004).
